Results taken from patent publication US5760036A, “Aminediol protease inhibitors” (E. R. Squibb & Sons, Inc., priority 1995, dated 1998).
Counter-ions that a name gives are not always drawn. Like-named read-outs stand apart in the source and are kept apart here.

Assays:
[1] = system: RF strain of HIV (CEM-SS cells); test: Cell Culture Anti-HIV Activity (cell viability, formazan); type: cell-based; conditions: CEM-SS cells, RF strain of HIV, multiplicity of infection 0.04, 6 days at 37° C., 450 nm, read-out: HIV (CEM Cells) IC50
Summary of the method: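 Half-log compound dilutions added to CEM-SS cells (5000/well) carrying HIV RF (MOI 0.04), 6 days, 37° C. Cell protection measured as formazan from tetrazolium, A450. IC50: drug level restoring infected-cell formazan to 50% of the uninfected untreated control.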

HIV protease = target: T1, HIV protease (Human immunodeficiency virus type 1 group M subtype B, UniProt P04585); test: HIV Protease Assay; type: biochemical; conditions: for inhibition at 10 µM: pH 5.5, 10 μM inhibitor, read-out: HIV Protease % Inhibition at 10 μM
T1 construct: and purified protease
Summary of the method: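 At a single final concentration of 10 μM (4% DMSO), inhibitors were added to a 30-minute, 37° C reaction of purified enzyme with 450 μM H2N-Val-Ser-Gln-Asn-(β-naphthyl-alanine)-Pro-Val-Ile-OH at pH 5.5 (sodium acetate, BSA). Hydrolysis was quantified by reverse-phase HPLC with 220 nm detection after acid quench.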

[2] = Human immunodeficiency virus 1, CEM-SS, 144 h
[3] = 4% DMSO, 450 μM substrate, pH 5.5, 30 minutes at 37° C., RP-HPLC
[4] = 10 μM inhibitor, 4% DMSO, 450 μM substrate, pH 5.5, 30 minutes at 37° C., RP-HPLC

What does the source list for `CC(C)C(NC(=O)OCc1ccccc1)C(=O)NC(Cc1ccccc1)C(O)CNCC(O)C(Cc1ccccc1)NC(=O)C(NC(=O)OCc1ccccc1)C(C)C` [Compound 82, [S-[1R*,2R*(2S*,3R*)]]-N-[2-Hydroxy-3-[[2-hydroxy-4-phenyl-3-[[[N-(phenylmethoxy)carbonyl]-L-valyl]amino]butyl]amino]-1-(phenylmethyl)propyl]-N-^2-[(phenylmethoxy)carbonyl]-L-valinamide]?
IC50 [1, 2]: > 3000 nM; inhibition at 10 µM (HIV protease; [3]): 94%

How did the IC50 [1, 2] turn out when `CC(C)(C)NC(=O)N[C@@H](Cc1ccccc1)[C@H](O)CNC[C@@H](O)[C@H](Cc1ccccc1)NC(=O)OC(C)(C)C` [Compound 50, [1S-[1R*,2S*(2S*,3R*)]]-[3-[[3-[[[(1,1-Dimethylethyl)amino]carbonyl]amino]-2-hydroxy-4-phenylbutyl]amino]-2-hydroxy-1-(phenylmethyl)propyl]carbamic acid, 1,1-dimethylethyl ester] was run?
The IC50 was 220 nM.

What about the inhibition at 10 µM (HIV protease; [3]) of the same compound?
The inhibition at 10 µM was 97%.

Which results are given for `CC(C)C(C)(NC(=O)OCc1ccccc1)C(=O)N[C@@H](Cc1ccccc1)[C@H](O)CNC[C@@H](O)[C@H](Cc1ccccc1)NC(=O)OC(C)(C)C` (stereo partly drawn) [Compound 73, [(S,R)-3-[[(R,S)-3-[[2-[[(Phenyl-methoxy)carbonyl)amino]-2,3-dimethyl-1-oxy-butyl]amino]-2-hydroxy-4-phenylbutyl]amino]-2-hydroxy-1-(phenylmethyl)-propyl]carbamic acid, 1,1-dimethylethyl ester]?
IC50 [1, 2]: 600 nM; inhibition at 10 µM (HIV protease; [3]): 99%

`CC(C)(C)OC(=O)N[C@@H](Cc1ccccc1)[C@H](O)CNC[C@@H](O)[C@H](Cc1ccccc1)NC(=O)C(C)(O)C(C)(C)CO` (single isomer, unassigned; isomer b) [Compound 357, [1S-[1R*,2S*(2S*,3R*)]]-[3-[[3-[(2,4-Dihydroxy-2,3,3-trimethyl-1-oxobutyl)amino]-2-hydroxy-4-phenylbutyl]amino]-2-hydroxy-1-(phenylmethyl)propyl]carbamic acid, 1,1-dimethylethyl ester, isomer B] was tested. Which IC50 [1] did it give?
Its IC50 is 110 nM.

And the “HIV Protease % Inhibition at 10 μM” value (HIV protease)?
The value was 99%.

For `CC(C)[C@H](NC(=O)OCc1ccccc1)C(=O)N[C@@H](Cc1ccccc1)[C@H](O)CNC[C@@H](O)[C@H](Cc1ccccc1)NC(=O)OC(C)(C)C` [Compound 52, [S-[1R*,2S*(2S*, 3R*)]-N-[3-[[3-[[(1,1-Dimethylethoxy)carbonyl]amino]-2-hydroxy-4-phenylbutyl]-amino]-2-hydroxy-1-(phenylmethyl)propyl-N^2-[(phenylmethoxy)carbonyl]-L-valinamide], which IC50 [1, 2] is on record?
Its IC50 is 200 nM.

And the inhibition at 10 µM (HIV protease; [3])?
The inhibition at 10 µM was 100%.

What does the source list for `COC(=O)N[C@H](C(=O)N[C@@H](Cc1ccc(OCC(=O)N2CCOCC2)cc1)[C@H](O)CNC[C@@H](O)[C@H](Cc1ccccc1)NC(=O)OC(C)(C)C)C(C)(C)C` (relative stereo) [Compound 341, [1R*,2S*(2S*,3R*)]-N-[3-[[3-[[(1,1-Dimethylethoxy)carbonyl]amino]-2-hydroxy-4-phenylbutyl]amino]-2-hydroxy-1-[[4-[2-(4-morpholinyl)-2-oxoethoxy]phenyl]methyl]propyl]-N^2-(2-methoxycarbonyl)-3-methyl-L-valinamide]?
IC50 [1, 2]: 2100 nM; inhibition at 10 µM (HIV protease; [3]): 99%

How did the IC50 [1, 2] turn out when `CC(C)[C@H](NC(=O)OCc1nc2ccccc2n1C)C(=O)N[C@@H](Cc1ccccc1)[C@H](O)CNC[C@@H](O)[C@H](Cc1ccccc1)NC(=O)OC(C)(C)C` [Compound 170, [S-[1R*,2S*(2S*,3R*)]-N-[3-[[3-[[(1 l-Dimethylethoxy)carbonyl]amino]-2-hydroxy-4-phenylbutyl]amino]-2-hydroxy-1-(phenylmethyl)-propyl]-N^2-[[(1-methyl-1H-benzimidazol-2-yl)-methoxy]carbonyl]-L-valinamide] was run?
The IC50 was 100 nM.

And the inhibition at 10 µM (HIV protease; [3])?
The inhibition at 10 µM was 100%.

Which results are given for `CC(C)(C)OC(=O)N[C@@H](Cc1ccccc1)[C@H](O)CNC[C@@H](O)[C@H](Cc1ccccc1)NC(=O)[C@H](Cc1ccccc1)NC(=O)OCc1ccccc1` (relative stereo) [Compound 55, [1R*,2S*(2S*,3R*)]-N-[[3-[[(1,1-Dimethylethoxy)carbonyl]amino]-2-hydroxy-4-phenylbutyl]amino]-2-hydroxy-1-(phenylmethyl)propyl]-N^2-[(phenylmethoxy)carbonyl]-L-phenylalaninamide]?
IC50 [1, 2]: 700 nM; inhibition at 10 µM (HIV protease; [3]): 91%

For `CC(OC(=O)N[C@@H](Cc1ccccc1)[C@H](O)CNC[C@@H](O)[C@H](Cc1ccccc1)NC(=O)OC(C)(C)C)c1cccnc1` (stereo partly drawn) [Compound 258, [R-(R*,S*)]-[Iminobis[2-hydroxy-1-(phenylmethyl)-3,1-propanediyl)]biscarbamic acid. 1,1-dimethylethyl-1-(3-pyridinyl)ethyl ester], which IC50 [1, 2] is on record?
The IC50 was 1500 nM.

And the inhibition at 10 µM (HIV protease; [3])?
Its inhibition at 10 µM is 91%.

How did the IC50 [1, 2] turn out when `CC(C)(C)OC(=O)N[C@@H](Cc1ccccc1)[C@H](O)CNC[C@@H](O)[C@H](Cc1ccccc1)NC(=O)C(O)(CO)C(C)(C)C` (single isomer, unassigned; isomer a) [Compound 366, [1S-[1R*,2S*(2S*,3R*)]]-[3-[[3-[[2-Hydroxy-2-(hydroxymethyl)-3.3-dimethyl-1-oxobutyl]amino]-2-hydroxy-4-phenylbutyl]amino]-2-hydroxy-1-(phenylmethyl)propyl]carbamic acid. 1.1-dimethylethyl ester, isomer A] was run?
Its IC50 is 9 nM.

What about the “HIV Protease % Inhibition at 10 μM” value (HIV protease; [4]) of the same compound?
Its value is 99%.

Which results are given for `CC(C)(C)OC(=O)N[C@@H](Cc1ccccc1)[C@H](O)CNC[C@@H](O)[C@H](Cc1ccccc1)NC(=O)OC(C)(C)CF` [Compound 252, [1S-(1R*,2S*)]-[Iminobis[2-hydroxy-1-(phenylmethyl)-3,1-propanediyl]]biscarbamic acid 2-fluoro-1,1-dimethylethyl 1,1-dimethylethyl ester]?
IC50 [1, 2]: 60 nM; inhibition at 10 µM (HIV protease; [3]): 99%

`COC(=O)N[C@H](C(=O)N[C@@H](Cc1ccc(OCCc2ccccn2)cc1)[C@H](O)CNC[C@@H](O)[C@H](Cc1ccccc1)NC(=O)OC(C)(C)C)C(C)(C)C` (relative stereo) [Compound 297, [1R*,2S*(2S*,3R*)]-N-[3-[[3-[[(1,1-Dimethylethoxy)carbonyl]amino]-2-hydroxy-4-phenylbutyl]amino]-2-hydroxy-1-[[4-[r2-(2-pyridinyl)ethoxy]phenyl]methyl]propyl]-N^2-(2-methoxycarbonyl)-3-methyl-L-valinamide] was tested. Which IC50 [1, 2] did it give?
The IC50 was 50 nM.

What about the inhibition at 10 µM (HIV protease; [3]) of the same compound?
The inhibition at 10 µM was 100%.

`CC(C)[C@H](NC(=O)CC(N)c1ccccc1)C(=O)N[C@@H](Cc1ccccc1)[C@H](O)CNC[C@@H](O)[C@H](Cc1ccccc1)NC(=O)OC(C)(C)C` (stereo partly drawn) [Compound 86, [S-[1R*,2S*(2S*,3R*)]-N^2 (3-Amino-1-oxo-3-phenylpropyl)-N-[3-[[3-[[(1,1-dimethylethoxy)carbonyl]amino]-2-hydroxy-4-phenylbutyl]amino-[-2-hydroxy-1-(-phenylmethyl)propyl]-L-valinamide, fumarate (2:3) salt] was tested. Which IC50 [1, 2] did it give?
Its IC50 is 1800 nM.

What about the inhibition at 10 µM (HIV protease; [3]) of the same compound?
Its inhibition at 10 µM is 78%.

How did the IC50 [1, 2] turn out when `CC(C)(C)OC(=O)N[C@@H](Cc1ccccc1)[C@H](O)CNC[C@@H](O)[C@H](Cc1ccccc1)NC(=O)[C@H](CC(N)=O)NC(=O)OCc1ccccc1` [Compound 53, [1S-[1R*,2S*(2S*3R*)]]-N-[3-[[3[[(1,1-Dimethylethoxy)-carbonyl]amino]-2-hydroxy-4-phenylbutyl]amino]-2-hydroxy-1-(phenylmethyl)propyl]-N^2 [(phenylmethoxy)-carbonyl]-L-aspartamide] was run?
The IC50 was 540 nM.

What about the inhibition at 10 µM (HIV protease; [3]) of the same compound?
The inhibition at 10 µM was 99%.

What does the source list for `CC(C)(C)OC(=O)N[C@@H](Cc1ccccc1)[C@H](O)CNC[C@@H](O)[C@H](Cc1ccccc1)NC(=O)OC(C)(C)C` [Compound 2, [1S-[1R*,2S*(2S*,3R*)]]-[3-[[3-[[(1,1-Dimethylethoxy)carbonyl]amino]-2-hydroxy-4-phenylbutyl]amino]-2-hydroxy-1-(phenylmethyl)propyl]carbamic acid, 1,1-dimethylethyl ester]?
IC50 [1, 2]: 90 nM; inhibition at 10 µM (HIV protease; [3]): 100%

For `CC(C)(C)OC(=O)N[C@@H](Cc1ccccc1)[C@H](O)CNC[C@@H](O)[C@H](Cc1ccccc1)NC(=O)C1NC(=O)OC1(C)C` (single isomer, unassigned; isomer b) [Compound 240, [1S-[1R*,2S*(2S*,3R*)]]-[3-[[3-[[(5,5-Dimethyl-2-oxo-4-oxazolidinyl)carbonyl]amino]-2-hydroxy-4-phenylbutyl]amino]-2-hydroxy-1-(phenylmethyl)propyl]carbamic acid, 1,1-dimethylethyl ester, isomer B], which IC50 [1, 2] is on record?
The IC50 was 2000 nM.

And the “HIV Protease % Inhibition at 10 μM” value (HIV protease; [4])?
The value was 99%.

`CC(C)(C)OC(=O)N[C@@H](Cc1ccccc1)[C@H](O)CNC[C@@H](O)[C@H](Cc1ccccc1)NC(=O)[C@@H](NC(=O)OCCOCc1ccccc1)C(C)(C)C` [Compound 351, [S-[1R*,2S*(2S*,3R*)]]-[2,2-Dimethyl-1-[[[3-[[3-[[(1,1-dimethyl-ethoxy)carbonyl]amino]-2hydroxy-4-phenylbutyl]amino-2-hydroxy-1-(phenylmethyll)-propyl]amino]carbonyl]propyl]carbamic acid, 2-(phenylmethoxy)ethyl ester] was tested. Which IC50 [1, 2] did it give?
Its IC50 is 80 nM.

What about the inhibition at 10 µM (HIV protease; [3]) of the same compound?
Its inhibition at 10 µM is 99%.
